The target in one data set is T1, human OX2 receptor (Homo sapiens, UniProt O43614).
T1 construct: expressed in transfected cells
T1 sequence (O43614 1-444): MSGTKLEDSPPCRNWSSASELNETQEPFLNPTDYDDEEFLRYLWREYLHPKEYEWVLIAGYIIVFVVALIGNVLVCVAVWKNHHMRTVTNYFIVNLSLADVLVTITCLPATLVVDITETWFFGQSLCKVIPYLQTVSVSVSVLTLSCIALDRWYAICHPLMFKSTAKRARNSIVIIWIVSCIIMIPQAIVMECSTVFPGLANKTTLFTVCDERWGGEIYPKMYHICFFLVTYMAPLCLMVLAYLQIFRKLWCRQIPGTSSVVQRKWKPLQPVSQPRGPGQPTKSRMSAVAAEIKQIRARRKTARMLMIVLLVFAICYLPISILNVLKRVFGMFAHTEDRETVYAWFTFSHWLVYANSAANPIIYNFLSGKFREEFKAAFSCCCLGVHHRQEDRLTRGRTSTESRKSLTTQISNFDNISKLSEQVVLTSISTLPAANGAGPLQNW
Put plainly: Measurement of orexin type 2 receptor agonist activity (Experimental Example 2; Fluo-4 AM calcium fluorescence, FDSS μCELL). The data set is classed as cell-based. The note with it: compound at 3 μM; CHO cells expressing human OX2 receptor; DMSO = 0%, 10 nM orexin A (human) = 100%. A digest of the protocol:
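Agonism was tested in CHO-K1 cells stably expressing human OX2 receptor (residues 1-444), loaded with Fluo-4 AM plus probenecid. Calcium fluorescence was recorded for 1 min 40 s after compound addition. Activity (%) was scaled between DMSO (0%) and 10 nM orexin A (100%) and reported at 3 μM compound.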

Like-named read-outs stand apart in the source and are kept apart here.

As to `Cc1ccc2nc1Oc1cccc(c1F)C[C@H]1[C@@H](NC(=O)OCc3ccccc3)C(F)(F)CN1C(=O)NC2`, the ring closure, yield of all isomers (from Cc1ccc(CN)nc1Oc1cccc(C[C@@H]2NCC(F)(F)[C@@H]2NC(=O)OCc2ccccc2)c1F, other bond, di(N-succinimidyl) carbonate, THF, 2.0 mM, 70.0 °C, 5.2 h) was found to be 78.8%.
`Cc1ccc2nc1Oc1cccc(c1)C[C@H]1[C@@H](NS(C)(=O)=O)CCN1C(=O)NC2` [Example 1, N-[(15aS,16S)-7-methyl-1-oxo-2,3,15a,16,17,18-hexahydro-1H,15H-4,8-(azeno)-10,14-(metheno)pyrrolo[1,2-j][1,8,10]oxadiazacyclo-heptadecin-16-yl]methanesulfonamide] had a ring closure, yield of all isomers (from Cc1ccc(CN)nc1Oc1cccc(C[C@@H]2NCC[C@@H]2NS(C)(=O)=O)c1, other bond, CDI/DIPEA, DMF, 2.15 mM, 25.0 °C, 12.0 h) of 29.9%. The “OX2R agonist activity (3 μM, %)” value on human OX2 receptor turned out to be 107%.
On to `Cc1ccc2nc1Oc1cccc(c1)C[C@H]1[C@@H](NS(C)(=O)=O)C(F)(F)CN1C(=O)NC2` [Example 2, N-[(15aS,16R)-17,17-difluoro-7-methyl-1-oxo-2,3,15a,16,17,18-hexahydro-1H,15H-4,8-(azeno)-10,14-(metheno)pyrrolo[1,2-j][1,8,10]oxadiazacyclo-heptadecin-16-yl]methanesulfonamide], for which the ring closure, yield of all isomers (from Cc1ccc(CN)nc1Oc1cccc(C[C@@H]2NCC(F)(F)[C@@H]2NS(C)(=O)=O)c1, other bond, CDI/DIPEA, DMF, 2.0 mM, 25.0 °C, 14.0 h) came out at 7.6%. Also, the “OX2R agonist activity (3 μM, %)” value at human OX2 receptor stood at 96%.
In the case of `Cc1ccc2nc1Oc1cccc(c1F)C[C@H]1[C@@H](NS(C)(=O)=O)C(F)(F)CN1C(=O)NC2` [Example 4, N-[(15aS,16R)-17,17,20-trifluoro-7-methyl-1-oxo-2,3,15a,16,17,18-hexahydro-1H,15H-4,8-(azeno)-10,14-(metheno)pyrrolo[1,2-j][1,8,10]oxadiazacyclo-heptadecin-16-yl]methanesulfonamide], the ring closure, yield of all isomers (from Cc1ccc(CN)nc1Oc1cccc(C[C@@H]2NCC(F)(F)[C@@H]2NS(C)(=O)=O)c1F, other bond, di(N-succinimidyl) carbonate/DIPEA, THF, 7.42 mM, 25.0 °C, 16.0 h) was found to be 40.1%. The “OX2R agonist activity (3 μM, %)” value on human OX2 receptor stood at 105%.
Regarding `CCS(=O)(=O)N[C@@H]1[C@@H]2Cc3cccc(c3F)Oc3nc(ccc3C)CNC(=O)N2CC1(F)F` [Example 5, N-[(15aS,16R)-17,17,20-trifluoro-7-methyl-1-oxo-2,3,15a,16,17,18-hexahydro-1H,15H-4,8-(azeno)-10,14-(metheno)pyrrolo[1,2-j][1,8,10]oxadiazacyclo-heptadecin-16-yl]ethanesulfonamide], the ring closure, yield of all isomers (from CCS(=O)(=O)N[C@@H]1[C@H](Cc2cccc(Oc3nc(CN)ccc3C)c2F)NCC1(F)F, other bond, di(N-succinimidyl) carbonate/4-methylmorpholine/DIPEA, THF, 1.81 mM, 25.0 °C, 12.0 h) worked out at 21%. Also, the “OX2R agonist activity (3 μM, %)” value at human OX2 receptor was 102%.
As to `Cc1ccc2nc1Oc1cccc(c1)C[C@H]1[C@@H](NS(C)(=O)=O)CCN1C(=O)CC2` [Example 7, N-[(1S,19aS)-11-methyl-5-oxo-2,3,6,7,19,19a-hexahydro-1H, 5H-8,12-(azeno)-14,18-(metheno)pyrrolo[2,1-h][1,9]oxazacycloheptadecin-1-yl]methanesulfonamide], for the setting “from Cc1ccc(CCC(=O)O)nc1Oc1cccc(C[C@@H]2NCC[C@@H]2NS(C)(=O)=O)c1, amide bond, PyBOP/TEA, THF, 0.231 mM, 25.0 °C, 4.0 h”, the ring closure, yield of all isomers was 20%. Further, on human OX2 receptor, the “OX2R agonist activity (3 μM, %)” value came out at 103%.
With `Cc1ccc2nc1Oc1cccc(c1F)C[C@H]1[C@@H](NS(C)(=O)=O)[C@@H](F)CN1C(=O)NC2` [Example 10, N-[(15aS,16R,17S)-17,20-difluoro-7-methyl-1-oxo-2,3,15a,16,17,18-hexahydro-1H,15H-4,8-(azeno)-14,10-(metheno)pyrrolo[1,2-j][1,8,10]oxadiazacyclo-heptadecin-16-yl]methanesulfonamide], the ring closure, yield of all isomers (from Cc1ccc(CN)nc1Oc1cccc(C[C@@H]2NC[C@H](F)[C@@H]2NS(C)(=O)=O)c1F, other bond, CDI, THF, 2.12 mM, 25.0 °C, 18.0 h) came out at 16.7%. For the same molecule, at human OX2 receptor, the “OX2R agonist activity (3 μM, %)” value is 96%.
For the molecule `O=C1NCc2ccc(Cl)c(n2)Oc2cccc(c2F)C[C@H]2[C@@H](NS(=O)(=O)C3CC3)C(F)(F)CN12` [Example 22, N-[(15aS,16R)-7-chloro-17,17,20-trifluoro-1-oxo-2,3,15a,16,17,18-hexahydro-1H,15H-4,8-(azeno)-14,10-(metheno)pyrrolo[1,2-j][1,8,10]oxadiazacyclo-heptadecin-16-yl]cyclopropanesulfonamide], for the setting “from NCc1ccc(Cl)c(Oc2cccc(C[C@@H]3NCC(F)(F)[C@@H]3NS(=O)(=O)C3CC3)c2F)n1, other bond, di(N-succinimidyl) carbonate, THF, 1.85 mM, 25.0 °C, 0.08 h”, the ring closure, yield of all isomers was determined as 49.4%. Further, the “OX2R agonist activity (3 μM, %)” value on human OX2 receptor came out at 100%.
Take `Cc1ccc2nc1Oc1cccc(c1)C[C@H]1[C@@H](NS(C)(=O)=O)CCN1C(=O)CO2` [Example 33, N-[(15aS,16S)-7-methyl-1-oxo-1,2,15a,16,17,18-hexahydro-15H-4,8-(azeno)-10,14-(metheno)pyrrolo[1,2-d][1,12,4]dioxazacyclo-heptadecin-16-yl]methanesulfonamide]: the ring closure, yield of all isomers (from Cc1ccc(OCC(=O)O)nc1Oc1cccc(C[C@@H]2NCC[C@@H]2NS(C)(=O)=O)c1, amide bond, PyBOP, THF, 0.92 mM, 25.0 °C, 12.0 h) was 3.4%. Moreover, on human OX2 receptor, the “OX2R agonist activity (3 μM, %)” value was 102%.
`Cc1cc(F)c2nc1Oc1cccc(c1F)C[C@H]1[C@@H](NS(C)(=O)=O)C(F)(F)CN1C(=O)NC2` [Example 36, N-[(15aS,16R)-5,17,17,20-tetrafluoro-7-methyl-1-oxo-2,3,15a,16,17,18-hexahydro-1H,15H-4,8-(azeno)-14,10-(metheno)pyrrolo[1,2-j][1,8,10]oxadiazacyclo-heptadecin-16-yl]methanesulfonamide] yielded a ring closure, yield of all isomers (from Cc1cc(F)c(CN)nc1Oc1cccc(C[C@@H]2NCC(F)(F)[C@@H]2NS(C)(=O)=O)c1F, other bond, di(N-succinimidyl) carbonate, THF, 2.95 mM, 60.0 °C, 1.5 h, 2 steps) of 38.2%. The “OX2R agonist activity (3 μM, %)” value at human OX2 receptor is listed as 104%.
On to `Cc1ccc2nc1Oc1cccc(c1F)C[C@H]1[C@@H](NS(C)(=O)=O)C(F)(F)CN1C(=O)NC2C` (stereo partly drawn) [Example 51, N-[(15aS,16R)-17,17,20-trifluoro-3,7-dimethyl-1-oxo-2,3,15a,16,17,18-hexahydro-1H,15H-4,8-(azeno)-14,10-(metheno)pyrrolo[1,2-j][1,8,10]oxadiazacyclo-heptadecin-16-yl]methanesulfonamide (optical isomer)], for which the ring closure, yield of all isomers (from Cc1ccc(C(C)N)nc1Oc1cccc(C[C@@H]2NCC(F)(F)[C@@H]2NS(C)(=O)=O)c1F, other bond, di(N-succinimidyl) carbonate, THF, 1.23 mM, 60.0 °C) was found to be 7.7%. For the same molecule, the “OX2R agonist activity (3 μM, %)” value on human OX2 receptor is 103%.
`Cc1ccc2nc1COc1cccc(c1F)C[C@H]1[C@@H](NS(C)(=O)=O)C(F)(F)CN1C(=O)NC2` [Example 54, N-[(16aS,17R)-18,18,21-trifluoro-7-methyl-1-oxo-2,3,16a,17,18,19-hexahydro-1H,9H,16H-4,8-(azeno)-11,15-(metheno)pyrrolo[2,1-h][1,9,11]oxadiazacyclo-octadecin-17-yl]methanesulfonamide] yielded a ring closure, yield of all isomers (from Cc1ccc(CNC(=O)OC(C)(C)C)nc1COc1cccc(C[C@H]2[C@@H](NS(C)(=O)=O)C(F)(F)CN2C(=O)OC(C)(C)C)c1F, other bond, di(N-succinimidyl) carbonate / N-methylmorpholine, DIPEA, THF, 2.78 mM, 60.0 °C, 22.0 h, 2 steps) of 14.4%. Moreover, the “OX2R agonist activity (3 μM, %)” value at human OX2 receptor is 87%.
For the molecule `CCS(=O)(=O)N[C@H]1[C@@H](F)CN2C(=O)NCc3ccc(C)c(n3)Cc3cccc(c3F)C[C@@H]12` [Example 56, N-[(15aS,16R,17S)-17,20-difluoro-7-methyl-1-oxo-2,3,15a,16,17,18-hexahydro-1H,9H,15H-8,4-(azeno)-10,14-(metheno)pyrrolo[1,2-c][1,3]diazacycloheptadecin-16-yl]ethanesulfonamide], where the note is “from CCS(=O)(=O)N[C@@H]1[C@H](Cc2cccc(Cc3nc(CN)ccc3C)c2F)NC[C@@H]1F, other bond, di(N-succinimidyl) carbonate / 4-methylmorpholine, DIPEA, THF, 4.1 mM, 25.0 °C, 17.0 h”, the ring closure, yield of all isomers was determined as 3.9%. The “OX2R agonist activity (3 μM, %)” value on human OX2 receptor was 100%.
For the molecule `Cc1ccc2nc1Oc1cccc(c1F)C[C@H]1[C@@H](NS(=O)(=O)C(C)C)C(F)(F)CN1C(=O)NC2` [Example 97, N-[(15aS,16R)-17,17,20-trifluoro-7-methyl-1-oxo-2,3,15a,16,17,18-hexahydro-1H,15H-4,8-(azeno)-14,10-(metheno)pyrrolo[1,2-j][1,8,10]oxadiazacyclo-heptadecin-16-yl]propane-2-sulfonamide], at human OX2 receptor, the “OX2R agonist activity (3 μM, %)” value is given as 108%.
Still for that read-out and setting: to “N-[(15aS,16R)-17,17- difluoro-7-methyl-1-oxo- 2,3,15a,16,17,18-hexahydro- 1H,15H-4,8-(azeno)-10,14- (metheno)pyrrolo[1,2- j][1,8,10]oxadiazacyclo- heptadecin-16- yl]ethanesulfonamide [Example 6]” belongs 99%.

The record behind these values is patent US20240309016A1, “MACROCYCLIC HETEROCYCLE COMPOUNDS AND USE THEREOF” (TAKEDA PHARMACEUTICAL COMPANY LIMITED, priority 2023, published 2024).
